The source of these data is patent EP3391747A1, “USE OF PHENOXYPYRIDINYL-SUBSTITUTED (1H-1,2,4-TRIAZOL-1-YL)ALCOHOLS FOR ENHANCING CROP PERFORMANCE” (Bayer AG, priority 2018, dated 2018).

For test [1], the system named is Septoria tritici. The test can be described thus: Septoria tritici test / in vitro microtest (liquid medium, microtitre plates, optical density at 620 nm). It counts as cell-based. As to conditions: for EC50 (Mean): mean over the 14 strains; for EC50: 5 days of incubation. As for the experimental part: In an in-vitro microtest, several compounds were tested against different strains of Septoria tritici.
The microtest was performed in liquid medium with 50% malt medium using microtitre plates.
The active compounds are applied as technical active substances dissolved in methanol and 8 concentrations were prepared. The resulting concentration range was 0; 0.0032; 0.016; 0.08; 0.4; 2; 10; and 50 µg a.i. /ml. A mycelium suspension of different strains of Septoria tritici was used for inoculation. After 5 days of incubation in darkness under shaking (10 Hrz) the optical density in each cavity was determined photometrically at 620 nm. […] Table 3: Septoria tritici test /in vitro

The subject of test [2] is winter wheat. The test can be described thus: Field trial in winter wheat: impact on yield, greening and canopy coverage under pathogen-free conditions. Format: in vivo, winter wheat variety "Dekan". As to conditions: 125 g a.i./ha; for Grain Yield (% of Control) / Grain Yield: sprayed threefold at BBCH 31, 39 and 69 as 100EC formulation; for Grain Yield (% of Control): control = 100EC blank formulation; for Grain Yield: harvest July 2017; for Greening (% of Control): measured visually at BBCH growth stage 65, untreated control plots = 100%; for Canopy Coverage: tractor-mounted RGB camera system, BBCH growth stage 37. As for the experimental part:
A field trial in winter wheat was conducted in the experimental station "Laacherhof" in Germany from autumn 2016 to summer 2017.
Seeds of the winter wheat variety "Dekan" were planted in October 2016. Fertilization, herbicide- and plant growth regulator applications were carried out according to the local agricultural practice. Additionally, a cover spray with the fungicidal composition "Pronto® Plus" was carried out at BBCH growth stage 51 in order to keep the field trial pathogen-free. The trial was conducted with 4 replicates and the replicates 2, 3 and 4 were randomized. The plot size was 8.8 m^2.
The compounds 2-[6-(4-chlorophenoxy)-2-(trifluoromethyl)-3-pyridyl]-1-(1,2,4-triazol-1-yl)propan-2-ol (I.01) and 2-[6-(4-bromophenoxy)-2-(trifluoromethyl)-3-pyridyl]-1-(1,2,4-triazol-1-yl)propan-2-ol (1.02) were sprayed threefold at BBCH growth stages 31, 39 and 69 with an use rate of 125 g a.i./ha (a.i. = active ingredient, i.e. the respective compound of formula (I)). Both compounds were applied as a 100EC formulation (100EC = emulsion concentrate comprising 100 g/L of the respective active ingredient).
The winter wheat was harvested in July 2017.
The greening effect was measured visually at BBCH growth stage 65. The greening of the untreated control plots corresponds to 100% and the plots of the other treatments were directly compared to the control plots (table 1).
The canopy coverage was measured by a tractor-mounted RGB camera system on May 11, 2017 at BBCH growth stage 37 (table 1). Table 1: Impact of different compounds on yield, greening and canopy coverage

For test [3], the system named is leaf discs of grape plants. The test can be described thus: Leaf disc test: chlorophyll content (greening effect) by SPAD-502 chlorophyll meter. As to conditions: 1 ppm; after 3 days at room temperature (21°C); 5 replicates. The procedure: According to this invention the chlorophyll content is measured by means of the commercially available hand-held chlorophyll meter SPAD-502 (Konica Minolta).
In a lab experiment, leaf discs of grape plants were put in petri dishes containing solutions of different compounds. 5 replicates were used for each treatment. Afterwards, the petri dishes were incubated for max. 7 days at room temperature (21°C). After 3 days, the chlorophyll content of the leaf discs was measured by using a commercially available hand-held chlorophyll meter (SPAD-502, Konica Minolta). Table 2: Impact of 2-[6-(4-bromophenoxy)-2-(trifluoromethyl)-3-pyridyl]-1-(1,2,4-triazol-1-yl)propan-2-ol (I.02) on the chlorophyll content (greening effect) in leaf discs

In the case of `CC(O)(Cn1cncn1)c1ccc(Oc2ccc(Cl)cc2)nc1C(F)(F)F` (stereo not shown) [Compound 1.01, 2-[6-(4-chlorophenoxy)-2-(trifluoromethyl)-3-pyridyl]-1-(1,2,4-triazol-1-yl)propan-2-ol], the “EC50 (Mean)” value in test [1] was 0,0203 ppm. The EC50 is 0,1348 ppm in test [1] (strain 01/16); 0,0248 ppm in test [1] (strain 02/16); 0,0032 ppm in test [1] (strain 03/16); 0,0355 ppm in test [1] (strain 04/16); 0,0503 ppm in test [1] (strain 05/16); 0,0039 ppm in test [1] (strain 06/16). Besides, the EC50 was 0,0032 ppm in test [1] (strain 07/16); 0,0641 ppm in test [1] (strain 08/16); 0,1002 ppm in test [1] (strain 09/16); 0,0034 ppm in test [1] (strain 11/16); 0,0715 ppm in test [1] (strain 12/16); 0,0055 ppm in test [1] (strain 13/16). The EC50 in test [1] (strain 14/16) is given as 0,0147 ppm; in test [1] (strain 15/16), 0,0663 ppm. The “Grain Yield (% of Control)” value in test [2] was 108 % of Control. For the same compound, in test [2], the “Grain Yield” value is 74,6 dt/ha. The “Greening (% of Control)” value in test [2] was 108 % of Control. Moreover, the “Canopy Coverage” value in test [2] is 58%.
Turning to `CC(O)(Cn1cncn1)c1ccc(Oc2ccc(Br)cc2)nc1C(F)(F)F` (stereo not shown) [Compound 1.02, 2-[6-(4-bromophenoxy)-2-(trifluoromethyl)-3-pyridyl]-1-(1,2,4-triazol-1-yl)propan-2-ol], the “EC50 (Mean)” value in test [1] was 0,0133 ppm. Moreover, the EC50 in test [1] (strain 01/16) is 0,0187 ppm; in test [1] (strain 02/16), 0,0108 ppm; in test [1] (strain 03/16), 0,0043 ppm; in test [1] (strain 04/16), 0,0433 ppm; in test [1] (strain 05/16), 0,0223 ppm; in test [1] (strain 06/16), 0,0033 ppm. In addition, the EC50 is listed as 0,0032 ppm in test [1] (strain 07/16); 0,0629 ppm in test [1] (strain 08/16); 0,0416 ppm in test [1] (strain 09/16); 0,0038 ppm in test [1] (strain 11/16); 0,0806 ppm in test [1] (strain 12/16); 0,0169 ppm in test [1] (strain 13/16). Besides, the figures for the EC50 in test [1] (strain 14/16) and in test [1] (strain 15/16) were 0,0080 ppm and 0,0059 ppm, respectively. Also, the “Grain Yield (% of Control)” value in test [2] is given as 112 % of Control. Moreover, the “Grain Yield” value in test [2] is on record as 77,8 dt/ha. Also, the “Greening (% of Control)” value in test [2] is listed as 137 % of Control. For the same compound, the “Canopy Coverage” value in test [2] was 58%. The “SPAD Reading” value in test [3] amounted to 32.
Regarding `CC(C)(C)C(O)(CCc1ccc(Cl)cc1)Cn1cncn1` (stereo not shown) [Tebuconazole, reference compound], the “EC50 (Mean)” value in test [1] was 7,4138 ppm. The EC50 in test [1] (strain 01/16) is reported as 8,1102 ppm; in test [1] (strain 02/16) it was 14,4303 ppm; in test [1] (strain 03/16), 13,2784 ppm; in test [1] (strain 04/16), 50,0000 ppm; in test [1] (strain 05/16), 8,5712 ppm; in test [1] (strain 06/16), 10,6222 ppm. The EC50 in test [1] (strain 07/16) is 5,4355 ppm; in test [1] (strain 08/16), 4,2639 ppm; in test [1] (strain 09/16) it was 27,1082 ppm; in test [1] (strain 11/16), 0,6823 ppm; in test [1] (strain 12/16), 2,1260 ppm; in test [1] (strain 13/16), 28,6583 ppm. Further, the EC50 in test [1] (strain 14/16) is 3,4790 ppm; in test [1] (strain 15/16), 2,3577 ppm. The “SPAD Reading” value in test [3] worked out at 25.
